The text below walks through data of patent publication US20090298820A1, “3-SUBSTITUTED-1H-PYRROLO[2,3-B]PYRIDINE AND 3-SUBSTITUTED-1H-PYRROLO[3,2-B]PYRIDINE COMPOUNDS, THEIR USE AS MTOR KINASE AND PI3 KINASE INHIBITORS, AND THEIR SYNTHESES” (Wyeth, priority 2008, published 2009).

Data set [1] concerns the target PI3Kγ (Homo sapiens, UniProt P48736). As to the kind of experiment: PI3K-gamma fluorescence polarization assay. The format is biochemical. The following applies: read-out: PI3Kγ Median IC50. In general terms: Fluorescence polarisation rises when a labelled molecule tumbles more slowly, as on binding a larger partner.
Data set [2] addresses PI3Kα (Homo sapiens, UniProt P42336). The data set can be described thus: PI3K-alpha fluorescence polarization assay. The format is biochemical. The following applies: read-out: PI3Kα Median IC50.
Data set [3] concerns the target T1, mTOR (Homo sapiens, UniProt P42345). As to the kind of experiment: mTOR enzyme assay (DELFIA format, His6-S6K substrate). The following applies: read-out: mTOR Kinase Median IC50. The format is biochemical.
In data set [4] the test system is human tumor xenograft models. The following applies: cited from earlier work.
Data set [5] deals with acute lymphoblastic leukemia. The following applies: NOS/SCID xenograft; cited from earlier work.
The target of data set [6] is T1, mTOR. The following applies: read-out: mTOR complexes / mTOR enzymes IC50; literature value; cited from earlier work.

Read-outs that look alike come from different tables or passages of the source.

Chain of PI3Kα (P42336 whole entry, species assumed): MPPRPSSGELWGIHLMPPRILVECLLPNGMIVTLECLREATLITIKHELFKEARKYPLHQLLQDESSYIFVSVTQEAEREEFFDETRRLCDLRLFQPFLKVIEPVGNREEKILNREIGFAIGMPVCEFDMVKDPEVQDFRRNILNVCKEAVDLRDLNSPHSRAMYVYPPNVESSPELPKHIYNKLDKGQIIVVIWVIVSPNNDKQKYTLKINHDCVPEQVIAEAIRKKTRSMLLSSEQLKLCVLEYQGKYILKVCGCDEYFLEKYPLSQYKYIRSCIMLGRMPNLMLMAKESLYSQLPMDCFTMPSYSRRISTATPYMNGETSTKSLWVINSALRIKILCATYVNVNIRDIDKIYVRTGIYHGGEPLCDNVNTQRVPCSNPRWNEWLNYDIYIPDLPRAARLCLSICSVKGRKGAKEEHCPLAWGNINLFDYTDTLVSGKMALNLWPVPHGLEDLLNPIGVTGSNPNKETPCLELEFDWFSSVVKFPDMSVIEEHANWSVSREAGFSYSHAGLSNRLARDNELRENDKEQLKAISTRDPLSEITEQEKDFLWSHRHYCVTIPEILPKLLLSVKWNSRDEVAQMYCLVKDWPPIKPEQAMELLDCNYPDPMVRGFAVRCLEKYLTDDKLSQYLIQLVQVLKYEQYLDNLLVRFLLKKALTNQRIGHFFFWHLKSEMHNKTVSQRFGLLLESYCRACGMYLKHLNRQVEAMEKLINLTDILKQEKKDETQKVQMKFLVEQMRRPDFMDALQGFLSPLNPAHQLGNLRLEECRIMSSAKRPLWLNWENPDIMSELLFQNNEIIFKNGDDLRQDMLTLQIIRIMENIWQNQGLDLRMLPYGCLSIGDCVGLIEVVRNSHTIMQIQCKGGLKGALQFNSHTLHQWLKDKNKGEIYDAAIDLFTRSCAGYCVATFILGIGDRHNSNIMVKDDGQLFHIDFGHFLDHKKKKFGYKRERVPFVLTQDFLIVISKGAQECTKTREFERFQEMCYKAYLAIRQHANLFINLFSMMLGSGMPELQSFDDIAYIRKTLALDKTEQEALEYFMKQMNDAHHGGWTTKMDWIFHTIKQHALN
Chain of PI3Kα (P27986 whole entry partner, species assumed): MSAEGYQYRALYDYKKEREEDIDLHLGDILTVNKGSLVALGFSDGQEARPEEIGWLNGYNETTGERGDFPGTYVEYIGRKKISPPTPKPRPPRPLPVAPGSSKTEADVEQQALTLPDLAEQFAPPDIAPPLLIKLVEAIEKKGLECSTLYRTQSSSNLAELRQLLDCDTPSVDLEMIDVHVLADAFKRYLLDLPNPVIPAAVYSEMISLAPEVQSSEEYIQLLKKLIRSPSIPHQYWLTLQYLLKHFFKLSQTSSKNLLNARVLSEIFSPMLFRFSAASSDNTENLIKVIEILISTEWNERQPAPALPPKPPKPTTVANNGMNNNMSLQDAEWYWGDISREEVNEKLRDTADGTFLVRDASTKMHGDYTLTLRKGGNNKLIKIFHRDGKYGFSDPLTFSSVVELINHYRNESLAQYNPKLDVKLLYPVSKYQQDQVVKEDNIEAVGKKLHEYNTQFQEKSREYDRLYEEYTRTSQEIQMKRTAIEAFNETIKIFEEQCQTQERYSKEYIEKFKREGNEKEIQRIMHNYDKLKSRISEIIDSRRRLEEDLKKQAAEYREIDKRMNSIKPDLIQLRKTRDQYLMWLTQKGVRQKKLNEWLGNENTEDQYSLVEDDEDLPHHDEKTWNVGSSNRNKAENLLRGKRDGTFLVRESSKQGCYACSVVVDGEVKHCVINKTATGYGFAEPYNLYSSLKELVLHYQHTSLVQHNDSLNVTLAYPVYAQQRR
Chain of PI3Kγ (P48736 whole entry, species assumed): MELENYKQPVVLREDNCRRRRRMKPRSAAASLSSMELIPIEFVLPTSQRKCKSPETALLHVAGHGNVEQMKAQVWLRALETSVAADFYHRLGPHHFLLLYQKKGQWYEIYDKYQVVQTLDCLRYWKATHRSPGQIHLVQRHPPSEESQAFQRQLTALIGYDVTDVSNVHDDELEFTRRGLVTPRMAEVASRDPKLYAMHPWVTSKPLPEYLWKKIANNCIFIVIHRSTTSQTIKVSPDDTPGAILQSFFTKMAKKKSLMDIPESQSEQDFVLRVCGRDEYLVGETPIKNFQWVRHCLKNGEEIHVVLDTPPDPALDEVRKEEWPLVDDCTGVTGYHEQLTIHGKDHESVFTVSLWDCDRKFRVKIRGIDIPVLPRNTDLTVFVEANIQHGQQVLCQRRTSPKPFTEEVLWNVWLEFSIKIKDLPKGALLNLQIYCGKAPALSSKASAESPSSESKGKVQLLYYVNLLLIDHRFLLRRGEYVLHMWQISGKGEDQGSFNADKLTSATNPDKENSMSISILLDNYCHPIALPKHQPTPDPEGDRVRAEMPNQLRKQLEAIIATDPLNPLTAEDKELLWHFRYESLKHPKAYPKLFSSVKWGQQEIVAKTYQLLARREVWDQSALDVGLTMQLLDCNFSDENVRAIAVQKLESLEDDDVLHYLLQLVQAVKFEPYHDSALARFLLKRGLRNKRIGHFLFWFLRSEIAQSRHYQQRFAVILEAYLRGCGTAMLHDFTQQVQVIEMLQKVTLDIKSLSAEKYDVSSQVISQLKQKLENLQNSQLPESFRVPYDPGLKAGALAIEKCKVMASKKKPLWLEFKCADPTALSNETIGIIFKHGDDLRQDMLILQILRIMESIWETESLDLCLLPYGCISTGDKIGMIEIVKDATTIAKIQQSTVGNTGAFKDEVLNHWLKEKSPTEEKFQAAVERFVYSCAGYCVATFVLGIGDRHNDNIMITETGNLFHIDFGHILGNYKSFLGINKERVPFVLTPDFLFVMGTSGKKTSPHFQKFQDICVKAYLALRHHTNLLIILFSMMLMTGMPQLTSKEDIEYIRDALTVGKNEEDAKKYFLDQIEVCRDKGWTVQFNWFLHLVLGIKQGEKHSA

For `C[C@@H]1CN(C(=O)C2CCN(c3ccnc4c3c(/C=C3\Oc5cccc(O)c5C3=O)cn4C)CC2)C[C@H](C)O1` [Compound 302, (2Z)-2-{[4-(4-{[(2R,6S)-2,6-dimethylmorpholin-4-yl]carbonyl}piperidin-1-yl)-1-methyl-1H-pyrrolo[2,3-b]pyridin-3-yl]methylidene}-4-hydroxy-1-benzofuran-3(2H)-one], the melting point – broadly, the temperature, or range, at which the solid turns liquid – was 162 to 166 °C. Also, in data set [1], the IC50 was 396 nM. Besides, the IC50 in data set [2] was determined as 223 nM. Also, the IC50 in data set [3] amounted to 3.2 nM.

Take `C[C@@H]1CN(C(=O)c2ccc(-c3ccnc4c3c(/C=C3\Oc5cccc(O)c5C3=O)cn4C)cc2)C[C@H](C)O1` [Compound 303, (2Z)-2-{[4-(4-{[(2R,6S)-2,6-dimethylmorpholin-4-yl]carbonyl}phenyl)-1-methyl-1H-pyrrolo[2,3-b]pyridin-3-yl]methylidene}-4-hydroxy-1-benzofuran-3(2H)-one]: the melting point is 262 to 270 °C. The IC50 in data set [1] was determined as 98 nM. In addition, in data set [2], the IC50 was 75 nM. Moreover, the IC50 in data set [3] stood at 2.3 nM.

In turn, `COCCN1CCN(C(=O)c2ccc(-c3ccnc4c3c(/C=C3\Oc5cccc(O)c5C3=O)cn4C)cc2)CC1` [Compound 304, (2Z)-4-hydroxy-2-{[4-(4-{[4-(2-methoxyethyl)piperazin-1-yl]carbonyl}phenyl)-1-methyl-1H-pyrrolo[2,3-b]pyridin-3-yl]methylidene}-1-benzofuran-3(2H)-one] displayed a melting point of 118 to 122 °C. Moreover, the IC50 in data set [1] came out at 312 nM. Further, in data set [2], the IC50 turned out to be 109 nM. Moreover, in data set [3], the IC50 was found to be 1.5 nM.

In turn, `COCCC1CN(C(=O)c2ccc(-c3ccnc4c3c(/C=C3\Oc5cccc(O)c5C3=O)cn4C)cc2)CCO1` (stereo not shown) [Compound 305, (2Z)-4-hydroxy-2-{[4-(4-{[2-(2-methoxyethyl)morpholin-4-yl]carbonyl}phenyl)-1-methyl-1H-pyrrolo[2,3-b]pyridin-3-yl]methylidene}-1-benzofuran-3(2H)-one] showed a melting point of 154 to 160 °C. Further, in data set [1], the IC50 was determined as 38 nM. Moreover, in data set [2], the IC50 worked out at 65 nM. In addition, in data set [3], the IC50 came to 1 nM.

As for `Cn1cc(/C=C2\Oc3cccc(O)c3C2=O)c2c(N3CCC(C(=O)N4CC5CCC(C4)O5)CC3)ccnc21` [Compound 306, (2Z)-4-hydroxy-2-({1-methyl-4-[4-(8-oxa-3-azabicyclo[3.2.1]oct-3-ylcarbonyl)piperidin-1-yl]-1H-pyrrolo[2,3-b]pyridin-3-yl}methylidene)-1-benzofuran-3(2H)-one], the melting point is 264 to 268 °C. In addition, the IC50 in data set [1] came to 131 nM. The IC50 in data set [2] worked out at 51 nM. Besides, the IC50 in data set [3] came out at 2 nM.

As to `Cn1cc(/C=C2\Oc3cccc(O)c3C2=O)c2c(N3CCC(C(=O)N4CCN(CCO)CC4)CC3)ccnc21` [Compound 307, (2Z)-4-hydroxy-2-{[4-(4-{[4-(2-hydroxyethyl)piperazin-1-yl]carbonyl}piperidin-1-yl)-1-methyl-1H-pyrrolo[2,3-b]pyridin-3-yl]methylidene}-1-benzofuran-3(2H)-one], the melting point is 136 to 140 °C. Further, the IC50 in data set [1] is 158 nM. Moreover, the IC50 in data set [2] was found to be 24 nM. For the same compound, the IC50 in data set [3] was determined as 1.9 nM.

`COCC1CN(C(=O)C2CCN(c3ccnc4c3c(/C=C3\Oc5ccc(NC(=O)Nc6cccnc6)cc5C3=O)cn4C)CC2)CCO1` (stereo not shown) [Compound 308, 1-[(2Z)-2-{[4-(4-{[2-(methoxymethyl)morpholin-4-yl]carbonyl}piperidin-1-yl)-1-methyl-1H-pyrrolo[2,3-b]pyridin-3-yl]methylidene}-3-oxo-2,3-dihydro-1-benzofuran-5-yl]-3-pyridin-3-ylurea] returned a melting point of 206 to 210 °C. Also, the IC50 in data set [1] came out at 2800 nM. Besides, in data set [2], the IC50 was found to be 729 nM. In addition, the IC50 in data set [3] is 37 nM.

`Cn1cc(/C=C2\Oc3ccc(NC(=O)Nc4cccnc4)cc3C2=O)c2c(N3CCC(C(=O)N4C5CCCC4COC5)CC3)ccnc21` [Compound 309, 1-[(2Z)-2-({1-methyl-4-[4-(3-oxa-9-azabicyclo[3.3.1]non-9-ylcarbonyl)piperidin-1-yl]-1H-pyrrolo[2,3-b]pyridin-3-yl}methylidene)-3-oxo-2,3-dihydro-1-benzofuran-5-yl]-3-pyridin-3-ylurea] came in with a melting point of 210 to 215 °C. The IC50 in data set [1] amounted to 1370 nM. Besides, in data set [2], the IC50 worked out at 164 nM. Also, in data set [3], the IC50 was determined as 48 nM.

Take `COCC1CN(C(=O)c2ccc(-c3ccnc4c3c(/C=C3\Oc5cccc(O)c5C3=O)cn4C)cc2)CCO1` (stereo not shown) [Compound 310, (2Z)-4-hydroxy-2-{[4-(4-{[2-(methoxymethyl)morpholin-4-yl]carbonyl}phenyl)-1-methyl-1H-pyrrolo[2,3-b]pyridin-3-yl]methylidene}-1-benzofuran-3(2H)-one]: the melting point was in the range of 222 to 226 °C. In data set [1], the IC50 was determined as 212 nM. The IC50 in data set [2] is 73 nM. In addition, in data set [3], the IC50 was 1.4 nM.

Compound `COCC1CN(C(=O)C2CCN(c3ccnc4c3c(/C=C3\Oc5cccc(O)c5C3=O)cn4C)CC2)CCO1` (stereo not shown) [Compound 311, (2Z)-4-hydroxy-2-{[4-(4-{[2-(methoxymethyl)morpholin-4-yl]carbonyl}piperidin-1-yl)-1-methyl-1H-pyrrolo[2,3-b]pyridin-3-yl]methylidene}-1-benzofuran-3(2H)-one] yielded a melting point of 112 to 115 °C. Also, in data set [1], the IC50 was 698 nM. For the same compound, the IC50 in data set [2] was 145 nM. The IC50 in data set [3] amounted to 3.8 nM.

Turning to `Cn1cc(/C=C2\Oc3cccc(O)c3C2=O)c2c(N3CCC(C(=O)N4C5CCCC4COC5)CC3)ccnc21` [Compound 312, (2Z)-4-hydroxy-2-({1-methyl-4-[4-(3-oxa-9-azabicyclo[3.3.1]non-9-ylcarbonyl)piperidin-1-yl]-1H-pyrrolo[2,3-b]pyridin-3-yl}methylidene)-1-benzofuran-3(2H)-one], the melting point lay within 210 to 218 °C. Further, in data set [1], the IC50 was 453 nM. Also, the IC50 in data set [2] came out at 67 nM. Also, the IC50 in data set [3] was determined as 3.2 nM.

As for `Cn1c(=O)n(-c2ccc(C(C)(C)C#N)cc2)c2c3cc(-c4cnc5ccccc5c4)ccc3ncc21` [NVP-BEZ-235, 2-methyl-2-(4-(3-methyl-2-oxo-8-(quinolin-3-yl)-2,3-dihydro-1H-imidazo[4,5-c]quinolin-1-yl)phenyl)propanenitrile], the “activity against human tumor models” value in data set [4] (prostrate (PC-3) and glioblastoma (U-87)) is recorded as “demonstrated activity”.

`Oc1cccc(-c2nc(N3CCOCC3)c3oc4ncccc4c3n2)c1` [PI103, 3-(4-(4-morpholinyl)pyrido[3′,2′:4,5]furo[3,2-d]pyrimidin-2-yl)phenol]: the “activity against human tumor models” value in data set [4] (I.P. dosing in mice, U87MG, PC3, MDA-MB-468, MDA-MB-435, HCT 116, SKOV3, IGROV-1) is “demonstrated activity”.

Turning to `CO[C@H]1C[C@@H]2CC[C@@H](C)[C@@](O)(O2)C(=O)C(=O)N2CCCC[C@H]2C(=O)O[C@H]([C@H](C)C[C@@H]2CC[C@@H](OC(=O)C(C)(CO)CO)[C@H](OC)C2)CC(=O)[C@H](C)/C=C(\C)[C@@H](O)[C@@H](OC)C(=O)[C@H](C)C[C@H](C)/C=C/C=C/C=C/1C` [Torisel], the “activity in xenograft mouse model” value in data set [5] is listed as “active”.

For `FC(F)c1nc2ccccc2n1-c1nc(N2CCOCC2)nc(N2CCOCC2)n1` [ZSTK474, 2-(2-difluoromethylbenzoimidazol-1-yl)-4,6-dimorpholino-1,3,5-triazine], the IC50 in data set [6] was above 10000 nM. Besides, the tumor growth inhibition result in data set [4] (chronic oral administration, 400 mg/kg, A549, PC-3, WiDr) is reported as “completely inhibited growth”.
